Results on 17 compounds are retold here after patent US20230212164A1, “ANNULATED 2-AMINO-3-CYANO THIOPHENES AND DERIVATIVES FOR THE TREATMENT OF CANCER” (BOEHRINGER INGELHEIM INTERNATIONAL GMBH, priority 2020, published 2023).

Test [1] has as its target T1, protein-protein interaction between SOS1 and KRAS G12C (Homo sapiens, UniProt P01116, C118S/C51S/C80L/G12C).
T1 construct: His6 (N)
Briefly: KRAS::SOS1 AlphaScreen binding assay. The conditions noted are these: Table 36. On the procedure: KRAS::SOS1 AlphaScreen Binding Assay
Assay buffer: • 1×PBS • 0.1% BSA • 0.05% Tween 20
AlphaLISA Glutathione Acceptor Beads and AlphaScreen Streptavidin Donor Beads are mixed in assay buffer at a concentration of 10 μg/mL (final assay concentration) each prior to use and kept at room temperature.
Compounds are diluted to a final start concentration of 100 μM and are tested in duplicate. […] For compound a start concentration of 100 μM, 150 nL of compound solution is transferred per well in 11 concentrations in duplicate with serial 1:5 dilutions.
The assay is run using a fully automated robotic system in a darkened room below 100 Lux. 10 μL of KRAS::SOS1 GDP mix is added into columns 1-24 to the 150 nL of compound solution (final dilution in the assay 1:100, final DMSO concentration 1%).
After 30 minutes incubation time 5 μL of bead mix is added into columns 1-23. Plates are kept at room temperature in a darkened incubator. After further 60 minutes incubation, the signal is measured using a PerkinElmer Envision HTS Multilabel Reader using the AlphaScreen specifications from PerkinElmer. Each plate contains the following controls: • diluted DMSO+KRAS::SOS1 GDP mix+bead mix • diluted DMSO+KRAS::SOS1 GDP mix
IC50 values are calculated and analyzed using a 4 parametric logistic model.

Test [2] deals with KRASG12-dependent Ba/F3 cells (Homo sapiens, UniProt P01116, G12C, cells depend on it). Briefly: Ba/F3 cell model proliferation assay (AlamarBlue, 72 h). The conditions noted are these: Ba/F3 cells transduced with KRASG12C, read-out: IC50 Ba/F3 KRASG12C. The class given is cell-based. On the procedure: Ba/F3 Cell Model Generation and Proliferation Assay
KRASG12-dependent Ba/F3 cells, sequence (P01116 whole entry G12C, canonical isoform): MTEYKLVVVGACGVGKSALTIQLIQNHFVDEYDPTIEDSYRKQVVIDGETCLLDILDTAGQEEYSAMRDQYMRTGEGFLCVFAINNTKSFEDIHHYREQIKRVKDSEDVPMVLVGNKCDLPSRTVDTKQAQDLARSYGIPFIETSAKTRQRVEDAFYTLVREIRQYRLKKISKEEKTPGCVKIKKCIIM
Plasmids containing KRASG12 mutants were obtained from GeneScript. To generate KRASG12-dependent Ba/F3 models, Ba/F3 cells were transduced with retroviruses containing vectors that harbor KRASG12 isoforms. Platinum-E cells (Cell Biolabs) were used for retrovirus packaging. Retrovirus was added to Ba/F3 cells. To ensure infection, 4 μg/mL polybrene was added and cells were spinfected. […] Cells with an infection efficiency of 10% to 20% were further cultivated and puromycin selection with 1 μg/mL was initiated. As a control, parental Ba/F3 cells were used to show selection status. Selection was considered successful when parental Ba/F3 cells cultures died. To evaluate the transforming potential of KRASG12 mutations, the growth medium was no longer supplemented with IL-3. Ba/F3 cells harboring the empty vector were used as a control. Approximately ten days before conducting the experiments, puromycin was left out.
All treatments were performed in technical duplicates. The assay is run using a fully automated robotic system. Treated cells were incubated for 72 h at 37° C. with 5% CO2.
AlamarBlue™ (ThermoFisher), a viability stain, was added and fluorescence measured in the PerkinElmer Envision HTS Multilabel Reader.

Test [3] has as its system pERK (Thr202/Tyr204) in NCI-H358 (KRAS G12C mutation). As to the kind of experiment: ERK phosphorylation assay 1 (AlphaLISA SureFire Ultra p-ERK1/2). Conditions: Homo sapiens, NCI-H358, read-out: IC50 H358 pERK.
Protocol: ERK Phosphorylation Assay
Materials Used for the Assay:
AlphaLISA SureFire Ultra p-ERK1/2 (Thr202/Tyr204) Assay Kit (ALSU-PERK-A500)
The cells are incubated for 1 h at room temperature and then incubated overnight in an incubator at 37° C. and 5% CO2 in a humidified atmosphere. 60 nL compound solution (10 mM DMSO stock solution) is then added using a Labcyte Echo 550 device. […] After 20 minutes of incubation at room temperature with shaking, 6 μL of each lysate sample is transferred to a 384-well Proxiplate and analyzed for pERK (Thr202/Tyr204) with the AlphaLISA SureFire Ultra pERK1/2 (Thr202/Tyr204) Assay Kit. 3 μL Acceptor Mix and 3 μL Donor Mix are added under subdued light and incubated for 2 h at room temperature in the dark, before the signal is measured on a PerkinElmer Envision HTS Multilabel Reader. The raw data were imported into and analyzed with the Boehringer Ingelheim proprietary software MegaLab (curve fitting based on the program PRISM, GraphPad Inc.).

T1 sequence (P01116 1-169 isoform P01116-2 G12C/C51S/C80L/C118S): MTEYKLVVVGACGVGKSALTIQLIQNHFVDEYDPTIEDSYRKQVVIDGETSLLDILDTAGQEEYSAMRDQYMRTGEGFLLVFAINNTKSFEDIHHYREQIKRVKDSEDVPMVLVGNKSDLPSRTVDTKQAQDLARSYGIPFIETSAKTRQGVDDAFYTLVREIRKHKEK

In the case of `C=CC(=O)N1CCN(c2cc(-c3noc([C@@]4(C)CCCc5sc(N)c(C#N)c54)n3)nc(N3CCCN(CCOC)C[C@@H]3C)c2)CC1` [Ia-130], the IC50 was 7 nM in test [1] and 16.6 nM in test [3]. For the same compound, the GI50 in test [2] came to 37.4 nM.

For `C=CC(=O)N1CCN(c2cc(-c3noc(C4(C)CCCc5sc(N)c(C#N)c54)n3)nc(N3CCC(N4CC[C@@H](F)C4)CC3)c2)CC1` (stereo partly drawn) [Ia-39], the IC50 was found to be 10 nM in test [1] and 6.2 nM in test [3]. Also, the GI50 in test [2] turned out to be 87.6 nM.

With `C=CC(=O)N1CCN(c2cc(-c3noc([C@@]4(C)CCCc5sc(N)c(C#N)c54)n3)nc(N3CCCN(C)C[C@@H]3C)n2)CC1` [Ia-131], the IC50 in test [1] is 5 nM; in test [3] it was 6.2 nM. Moreover, the GI50 in test [2] was 22.4 nM.

Regarding `C=CC(=O)N1CCN(c2cc(-c3noc([C@@]4(C)CCCc5sc(N)c(C#N)c54)n3)nc(N3CCCN(CCOC)C[C@@H]3C)n2)CC1` [Ia-129], the concentration for half-maximal inhibition (IC50) in test [1] stood at 6 nM; in test [3], 6.4 nM. Further, in test [2], the GI50 came out at 22.5 nM.

As for `C=CC(=O)N1CCN(c2cc(-c3noc([C@@]4(C)CCCc5sc(N)c(C#N)c54)n3)nc(N3CCN(C)CC3)c2)CC1` [Ia-116], the half-maximal inhibitory concentration (IC50) was 31 nM in test [1] and 6.4 nM in test [3]. Further, the GI50 in test [2] was 208 nM.

For the compound `C=CC(=O)N1CCN(c2cc(-c3noc(C4(C)CCCc5sc(N)c(C#N)c54)n3)nc(N3CCCN(CCCOC)C[C@@H]3C)c2)CC1` (stereo partly drawn) [Ia-19], the figures for the IC50 in test [1] and in test [3] were 5 nM and 6.2 nM, respectively. The GI50 in test [2] stood at 25.6 nM.

For the compound `C=CC(=O)N1CCN(c2cc(O[C@@H]3CCN(C)C3)nc(-c3noc([C@@]4(C)CCCc5sc(N)c(C#N)c54)n3)c2)CC1` [Ia-127], the concentration for half-maximal inhibition (IC50) in test [1] was determined as 60 nM; in test [3], 22.1 nM. Also, the GI50 in test [2] came to 1430 nM.

Take `C=CC(=O)N1CCC(Oc2cc(-c3noc(C4(C)CCCc5sc(N)c(C#N)c54)n3)nc(N3CCN(C)C[C@@H]3C)c2)CC1` (stereo partly drawn) [Ia-114]: the figures for the half-inhibitory concentration (IC50) in test [1] and in test [3] were 11 nM and 4.1 nM, respectively. For the same compound, in test [2], the GI50 came out at 12.6 nM.

Consider `C=CC(=O)N1CC2CN(c3cc(-c4noc([C@@]5(C)CCCc6sc(N)c(C#N)c65)n4)nc(N4CCCN(C)C[C@@H]4C)n3)CC2C1` (stereo partly drawn) [Ia-97], for which the half-inhibitory concentration (IC50) in test [1] amounted to 43 nM. Moreover, in test [2], the GI50 came to 967 nM.

The compound `C=CC(=O)N1CCN(c2cc(-c3noc([C@@]4(C)CCCc5sc(N)c(C#N)c54)n3)nc(OC[C@@H]3CCCN3C)n2)CC1` [Ia-47] gave a half-maximal inhibitory concentration (IC50) in test [1] of 3 nM. For the same compound, the GI50 in test [2] was 186 nM.

Consider `C=CC(=O)N1CCN(c2cc(-c3noc([C@@]4(C)CCCc5sc(N)c(C#N)c54)n3)nc(N3CCCN([C@H]4CCOC4)C[C@@H]3C)n2)CC1` [Ia-44], for which the IC50 in test [1] was 1.5 nM. For the same compound, the GI50 in test [2] was 2.5 nM.

Compound `C=CC(=O)N1CCC2(CCN(c3cc(-c4noc([C@@]5(C)CCCc6sc(N)c(C#N)c65)n4)nc(N4CCCN(CCCOC)C[C@@H]4C)n3)CC2)C1` [Ia-98] gave a 50% inhibitory concentration (IC50) in test [1] of 59 nM. For the same compound, the GI50 in test [2] stood at 662 nM.

For `C=CC(=O)N1CC2(CCN(c3cc(-c4noc([C@@]5(C)CCCc6sc(N)c(C#N)c65)n4)nc(N4CCCN(C)C[C@@H]4C)n3)C2)C1` [Ia-94], the IC50 in test [1] was 77 nM. In test [2], the GI50 was 2290 nM.

On to `C=CC(=O)N1CCC(Oc2cc(-c3noc(C4(C)CCCc5sc(N)c(C#N)c54)n3)nc(N3CCN(C)CC3)c2)CC1` (stereo not drawn) [Ia-88], for which the concentration for half-maximal inhibition (IC50) in test [1] came out at 71 nM. In test [2], the GI50 was determined as 381 nM.

For `C=CC(=O)N1CC(N2CCN(c3cc(-c4noc([C@@]5(C)CCCc6sc(N)c(C#N)c65)n4)nc(N4CCCN(CCCOC)C[C@@H]4C)n3)CC2)C1` [Ia-99], the IC50 in test [1] was determined as 45 nM. Besides, in test [2], the GI50 is 1040 nM.

Take `C=CC(=O)N1CCC2(CC1)CN(c1cc(-c3noc([C@@]4(C)CCCc5sc(N)c(C#N)c54)n3)nc(N3CCCN(CCCOC)C[C@@H]3C)n1)C2` [Ia-92]: the IC50 in test [1] was 16 nM. Further, in test [2], the GI50 worked out at 178 nM.

`C=CC(=O)N1CCCN(c2cc(-c3noc([C@@]4(C)CCCc5sc(N)c(C#N)c54)n3)nc(O[C@@H](C)[C@@H]3CCCN3C)n2)CC1` [Ia-52] yielded an IC50 in test [1] of 1.8 nM. In test [2], the GI50 stood at 18.4 nM.
